Legend:
Bcl-2/Bak interactions = target: T1, Bcl-2/Bak interactions (Homo sapiens, UniProt P10415); test: Co-immunoprecipitation of Bcl-2/Bak in PC-3 cells; type: cell-based
T1 construct: endogenous in cells; host or cells: PC-3 cells
Experimental: (§1) Immunoblotting—Cells were seeded in 10% FBS-containing RPMI-1640 medium for 24 h and treated with various agents as aforementioned. After individual treatments for 24 h, the adherent cells in T-25 or T-75 flasks were scraped, combined with the medium, and centrifuged at 2200 rpm for 10 min. The […] were recovered, placed on ice, and triturated with 20 to 50 μL of a chilled lysis buffer (M-PER Mammalian Protein Extraction Reagent; Pierce, Rockford, Ill.), to which was added 1% protease inhibitor cocktail (set III; EMD Biosciences, Inc., San Diego, Calif.). After a 30-min incubation on ice, the mixture was centrifuged at 16,100×g for 3 min. […]
The pellet was resuspended in ice-cold 0.5 mL of radioimmunoprecipitation assay buffer (50 mM Tris-HCl, pH 7.4, 1% Nonidet P-40, 0.25% sodium deoxycholate, 150 mM NaCl, 1 mM EDTA, and 1% protease inhibitor cocktail) and gently mixed on an orbital shaker at 4° C. for 15 min, followed by centrifugation at 14,000×g for 15 min to yield cell lysates. […] Equal amounts of proteins from these lysates, as determined by the Bradford assay, were mixed with anti-Bcl-2 or anti Bcl-XL antibodies in an orbital shaker at 23° C. for 2 h, followed by 100 μL of protein A-agarose bead slurry at 4° C. for 12 h. […]

Bcl-xL = Bcl-xL (Homo sapiens, UniProt Q07817); test: Competitive fluorescence polarization assay, Bak BH3 peptide binding to Bcl-xL; details: for activity in inhibiting Bak peptide-Bcl-xL binding: even at 100 μM
Sequence of Bcl-xL (Q07817 1-212 limits assumed): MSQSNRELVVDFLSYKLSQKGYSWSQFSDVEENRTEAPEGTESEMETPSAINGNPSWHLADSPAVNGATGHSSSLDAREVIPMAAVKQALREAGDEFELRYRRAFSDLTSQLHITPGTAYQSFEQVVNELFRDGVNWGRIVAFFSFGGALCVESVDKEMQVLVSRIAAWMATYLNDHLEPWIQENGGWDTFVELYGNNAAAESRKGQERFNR
Experimental: Competitive fluorescence polarization assay—The binding affinity of the test agent to Bcl-XL was analyzed by a competitive fluorescence polarization assay in which the ability of the agent to displace the binding of a Bak BH3-domain peptide to either Bcl-2 or Bcl-XL was determined. Flu-BakBH3, a Bak-BH3 peptide labeled at the NH2 terminus with fluorescein, was purchased from Genemed Synthesis (San Francisco, Calif.). COOH-terminal-truncated, His-tagged Bcl-XL was purchased from EMD Biosciences (San Diego, Calif.) and soluble glutathione S-transferase-fused Bcl-2 was obtained from Santa Cruz Biotechnology. The binding analysis was carried out in a dual-path length quartz cell with readings taken at […] at room temperature using a luminescence spectrometer according to an established procedure (19).
(§2) Determination of IC50 values—Data from cell viability and fluorescence polarization assays were analyzed by using the CalcuSyn software (Biosoft, Ferguson, Mo.) to determine IC50 values, in which the calculation was based on the medium-effect equation [i.e., log(fa/fu)=m log(D)−m log(Dm), where fa and fu denote fraction affected and unaffected, respectively; m represents the Hill-type coefficient signifying the sigmoidicity of the dose-effect curve; and D and Dm are the dose used and IC50, respectively.

PrEC cells = test: MTT cell viability, normal prostate epithelial cells (PrECs); type: cell-based, human; details: 24 h, Prostate Epithelial Cell Basal Medium with growth supplements
Experimental: (§3) Cell culture—LNCaP androgen-dependent (p53+/+) and PC-3 androgen-nonresponsive (P53−/−) prostate cancer cells were obtained from the American Type Culture Collection (Manassas, Va.). The preparation of the stable Bcl-xL-overexpressing LNCaP clone B3 (LNCaP/B3) was previously described (18). PC-3, LNCaP, and LNCaP/B3 cells were maintained in RPMI 1640 supplemented with 10% fetal bovine serum (FBS) at 37° C. in a humidified incubator containing 5% carbon dioxide. Normal human prostate epithelial (PrEC) cells were purchased from Cambrex Bio Science Walkersville, Inc. (East Tutherford, N.J.). Cells were maintained in Prostate Epithelial Cell Medium with growth supplements at 37° C. in a humidified incubator containing 5% carbon dioxide. The recommended seeding density for subculture is 2,500 cells/cm^2. It takes 6-9 days from subculture to attain confluency.
Cell viability analysis—The effect of individual test agents on cell viability was assessed by using the MTT assay in 6 to 12 replicates. PC3, LNCaP, and B3-LNCaP cells were seeded and incubated in poly-p-lysine-coated, 96-well, flat-bottomed plates in RPMI 1640 medium supplemented with 10% FBS medium for 24 hours. PrEC cells were seeded at the recommend density in 96-well, flat-bottomed plates in Prostate Epithelial Cell Medium with growth supplements for 3 days. All cells were exposed to various concentrations of test agents dissolved in ethanol (for α-tocopherol, α-tocopheryl succinate, and TS-3) or DMSO (all other test agents used) with a final concentration of 0.1% in serum-free RPMI 1640 medium for PC3, LNCaP, and LNCaP/B3 cells or in Prostate Epithelial Cell Basal Medium with growth supplements for PrEC cells. Controls received DMSO or ethanol vehicle at a concentration equal to that in drug-treated cells. The medium was removed, replaced by 200 μL of 0.5 mM MTT in 10% FBS-containing RPMI 1640 medium, and cells were incubated in the CO2 incubator at 37° C. for 2 h. […] Absorbance at 570 nm was determined on a plate reader.

Bcl-xL/Bak interactions = target: T2, Bcl-xL/Bak interactions (Homo sapiens, UniProt Q07817); test: Co-immunoprecipitation of Bcl-xL/Bak in PC-3 cells; type: cell-based
T2 construct: the endogenous counterpart in PC-3 cells; endogenous in cells; host or cells: PC-3 cells
T2 sequence (Q07817 whole entry): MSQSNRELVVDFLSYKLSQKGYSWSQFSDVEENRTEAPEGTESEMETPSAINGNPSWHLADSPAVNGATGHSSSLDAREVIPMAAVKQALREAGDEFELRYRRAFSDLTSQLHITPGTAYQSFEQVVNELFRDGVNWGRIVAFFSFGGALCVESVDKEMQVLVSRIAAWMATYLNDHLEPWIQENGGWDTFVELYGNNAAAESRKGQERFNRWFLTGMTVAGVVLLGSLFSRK
Experimental: as §1
Co-immunoprecipitation—PC3 cells treated with 40 μM α-tocopheryl succinate or 10 μM TS-1 for 24 h were scraped off the flask, transferred into centrifuge tubes, and centrifuged at 2200 rpm for 10 min to pellet the cells. […] Equal amounts of proteins from these lysates, as determined by the Bradford assay, were mixed with anti-Bcl-2 or anti Bcl-XL antibodies in an orbital shaker at 23° C. for 2 h, followed by 100 μL of protein A-agarose bead slurry at 4° C. for 12 h. […]

PC-3 cells [1] = test: Apoptosis detection in PC-3 cells (cell death ELISA, cytochrome c release, PARP cleavage); type: cell-based, human; details: 24 h, serum-free medium
Experimental: Apoptosis detection by ELISA—Induction of apoptosis was assessed with a Cell Death Detection ELISA kit (Roche Diagnostics) by following the manufacturer's instruction. This test is based on the quantitative determination of cytoplasmic histone-associated DNA fragments in the form of mononucleosomes and oligonucleosomes after induced apoptotic death. In brief, 5×10^6 cells were cultured in a T-25 flask in 10% FBS-containing medium for 24 h, and were treated with the test agents at various concentrations in serum-free medium for 24 hours. Both floating and adherent cells were collected; cell lysates equivalent to 5×10^5 cells were used in the ELISA.
Western blot analysis of cytochrome c release into the cytoplasm—Cytosolic-specific, mitochondria-free lysates were prepared according to an established procedure (18). In brief, after individual treatments for 24 h, both the incubation medium and adherent cells in T-75 flasks were collected and centrifuged at 600×g for 5 min. […] Bands were transferred to nitrocellulose membranes and analyzed by immunoblotting with anti-cytochrome c antibodies as described below. […]

PC-3 cells [2] = test: MTT cell viability, PC-3 cells; type: cell-based, human; details: for activity in suppressing cell viability: even at 100 μM, 24 h
Experimental: as §3
(§4) Cell viability analysis—The effect of individual test agents on cell viability was assessed by using the MTT assay in 6 to 12 replicates. PC3, LNCaP, and B3-LNCaP cells were seeded and incubated in poly-p-lysine-coated, 96-well, flat-bottomed plates in RPMI 1640 medium supplemented with 10% FBS medium for 24 hours. PrEC cells were seeded at the recommend density in 96-well, flat-bottomed plates in Prostate Epithelial Cell Medium with growth supplements for 3 days. […] Absorbance at 570 nm was determined on a plate reader.
as §2

LNCaP cells = test: MTT cell viability, LNCaP cells; type: cell-based, human; details: for activity in suppressing cell viability: even at 100 μM, 24 h
Experimental: as §3, §4, §2

[3] = test system: Bcl-xL, Bcl-2, Bax, Bak, Bad, and Bid; test: Expression of Bcl-2 family members in PC-3 cells (Western blot); type: cell-based, human; details: 24 h, serum-free RPMI 1640
Experimental: (§5) Immunoblotting—Cells were seeded in 10% FBS-containing RPMI-1640 medium for 24 h and treated with various agents as aforementioned. After individual treatments for 24 h, the adherent cells in T-25 or T-75 flasks were scraped, combined with the medium, and centrifuged at 2200 rpm for 10 min. The […] were recovered, placed on ice, and triturated with 20 to 50 μL of a chilled lysis buffer (M-PER Mammalian Protein Extraction Reagent; Pierce, Rockford, Ill.), to which was added 1% protease inhibitor cocktail (set III; EMD Biosciences, Inc., San Diego, Calif.). After a 30-min incubation on ice, the mixture was centrifuged at 16,100×g for 3 min. Two μL of the suspension was taken for protein analysis using the Bradford assay kit (Bio-Rad, Hercules, Calif.); to the remaining solution was added the same volume of 2× SDS-polyacryl-amide gel electrophoresis sample loading buffer (100 mM Tris-HCl, pH 6.8, 4% SDS, 5% β-mercaptoethanol, 20% glycerol, and 0.1% bromphenol blue). The mixture was boiled for 10 min. Equal amounts of proteins were loaded onto 8-12% SDS-polyacrylamide gels. After electrophoresis, protein bands were transferred to nitrocellulose membranes in a semidry transfer cell. […]

LNCaP/B3 cells = test: MTT cell viability, Bcl-xL-overexpressing LNCaP (LNCaP/B3) cells; type: cell-based, human; details: LNCaP/B3 vs LNCaP cells, 24-h exposure; to a degree greater than that of PC-3 cells
Experimental: as §3, §4

caspase-9 = test: Caspase-9 activation in PC-3 cells (Western blot); type: cell-based, human; details: 24 h
Experimental: as §5

Bcl-2 = Bcl-2 (Homo sapiens, UniProt P10415); test: Competitive fluorescence polarization assay, Bak BH3 peptide binding to Bcl-2; details: Flu-BakBH3, read-out: IC50, disruption of BH3 domain-mediated interactions (Bak BH3 peptide) with Bcl-2
Sequence of Bcl-2 (P10415 whole entry, species assumed, the tested form may be a part): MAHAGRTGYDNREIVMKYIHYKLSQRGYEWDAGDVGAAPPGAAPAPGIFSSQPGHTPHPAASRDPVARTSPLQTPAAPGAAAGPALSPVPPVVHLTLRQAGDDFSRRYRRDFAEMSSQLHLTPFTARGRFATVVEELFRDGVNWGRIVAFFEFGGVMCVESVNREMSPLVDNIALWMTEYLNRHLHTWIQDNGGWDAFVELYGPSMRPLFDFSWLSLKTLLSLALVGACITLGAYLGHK
Experimental: Competitive fluorescence polarization assay—The binding affinity of the test agent to Bcl-XL was analyzed by a competitive fluorescence polarization assay in which the ability of the agent to displace the binding of a Bak BH3-domain peptide to either Bcl-2 or Bcl-XL was determined. Flu-BakBH3, a Bak-BH3 peptide labeled at the NH2 terminus with fluorescein, was purchased from Genemed Synthesis (San Francisco, Calif.). COOH-terminal-truncated, His-tagged Bcl-XL was purchased from EMD Biosciences (San Diego, Calif.) and soluble glutathione S-transferase-fused Bcl-2 was obtained from Santa Cruz Biotechnology. […] Determination of IC50 values—Data from cell viability and fluorescence polarization assays were analyzed by using the CalcuSyn software (Biosoft, Ferguson, Mo.) to determine IC50 values, in which the calculation was based on the medium-effect equation [i.e., log(fa/fu)=m log(D)−m log(Dm), where fa and fu denote fraction affected and unaffected, respectively; m represents the Hill-type coefficient signifying the sigmoidicity of the dose-effect curve; and D and Dm are the dose used and IC50, respectively.

[4] = 24-h exposure, serum-free RPMI 1640, MTT, read-out: IC50, proliferation inhibition

T1 sequence (P10415 whole entry): as the sequence (P10415 whole entry, species assumed, the tested form may be a part) above

## Cc1c(C)c2c(c(C)c1OC(=O)CCC(=O)O)CCC(C)(CCCC(C)CCCC(C)C)O2 (stereo not shown) [TS-1, succinic acid mono-[2-(4,8-dimethyl-nonyl)-2,5,7,8-tetramethyl-chroman-6-yl]ester]
Bcl-2/Bak interactions; 10 μM
  intracellular binding of Bak to Bcl-2: abolished
Bcl-xL
  difference in IC50 between TS-1 and α-tocopheryl succinate in blocking Bak peptide binding to Bcl-xL: 3 fold
PrEC cells
  antiproliferative effect on normal prostate epithelial cells: resistant
Bcl-xL/Bak interactions; 10 μM
  intracellular binding of Bak to Bcl-xL: abolished
PC-3 cells [1]
  apoptotic death: evidenced by DNA fragmentation, cytochrome c release, and PARP cleavage

## Cc1c(C)c2c(c(C)c1OC(=O)CCC(=O)O)CCC(C)(C)O2 [TS-3, succinic acid mono-(2,2,5,7,8-pentamethyl-chroman-6-yl)ester]
Bcl-xL
  Bcl-xL binding affinity (effect of structural change): abrogated the binding affinity
  activity in inhibiting Bak peptide-Bcl-xL binding: lacked appreciable activity
PC-3 cells [2]
  activity in suppressing cell viability: lacked appreciable activity
LNCaP cells
  activity in suppressing cell viability: lacked appreciable activity

## Cc1c(C)c2c(c(C)c1O)CCC(C)(CCCC(C)CCCC(C)C)O2 (stereo not shown) [TS-4, 2-(4,8-dimethyl-nonyl)-2,5,7,8-tetramethyl-chroman-6-ol]
Bcl-xL
  activity in inhibiting Bak peptide-Bcl-xL binding: lacked appreciable activity
PC-3 cells [2]
  activity in suppressing cell viability: lacked appreciable activity
LNCaP cells
  activity in suppressing cell viability: lacked appreciable activity

## Cc1c(C)c2c(c(C)c1OCCC(=O)O)CCC(C)(CCCC(C)CCCC(C)C)O2 (stereo not shown) [TS-5, 3-[2,5,7,8-tetramethyl-2-(4,8-dimethyl-nonyl)-chroman-6-yloxy]propionic acid]
PrEC cells
  antiproliferative effect on normal prostate epithelial cells: resistant

## Cc1c(C)c2c(c(C)c1OC(=O)CCC(=O)O)CC[C@@](C)(CCC[C@H](C)CCC[C@H](C)CCCC(C)C)O2 [α-tocopheryl succinate, reference compound]
Bcl-2/Bak interactions; 40 μM, 12 h, vs DMSO control
  level of Bak associated with Bcl-2: significantly reduced
[3]
  Bad expression: decrease
  expression level of Bcl-2 members other than Bad (Bcl-xL, Bcl-2, Bax, Bak, Bid): did not cause appreciable changes
LNCaP/B3 cells
  resistance to induced cell death by ectopic Bcl-xL expression: substantially increased the resistance
Bcl-xL; fluorescence polarization, Flu-BakBH3, read-out: IC50, disruption of BH3 domain-mediated interactions (Bak BH3 peptide) with Bcl-xL
  IC50: 26 ± 2 µM
PrEC cells
  antiproliferative effect on normal prostate epithelial cells: resistant
Bcl-xL/Bak interactions; 40 μM, 12 h, vs DMSO control
  level of Bak associated with Bcl-xL: significantly reduced
caspase-9
  caspase-9 activation: in a dose-dependent manner
PC-3 cells [2]; [4]
  IC50: 40 µM
Bcl-2
  IC50: 26 ± 2 µM
LNCaP cells; [4]
  IC50: 15 µM
PC-3 cells [1]
  apoptotic death: evidenced by DNA fragmentation, cytochrome c release, and PARP cleavage

Reference: patent US20080009545A1, “Anticancer agents” (The Ohio State University Research Foundation, priority 2006, published 2008)
